Source: US20150196514A1, “METHOD OF TREATING CARDIOVASCULAR EVENTS USING COLCHICINE CONCURRENTLY WITH AN ANTITHROMBOTIC DRUG” (Murray and Poole Enterprises Limited, priority 2012, published 2015)

Experiments:
[1] = tested on: patients with acute pericarditis; details: at 18 months, colchicine 1.0 to 2.0 mg first day then 0.5 to 1.0 mg/day for 3 months added to conventional treatment, p=0.004; cited from earlier work
[2] = tested on: patients with a first episode of recurrent pericarditis; details: at 18 months, colchicine 1.0-2.0 mg first day then 0.5-1.0 mg/d for 6 months added to conventional treatment; cited from earlier work
[3] = tested on: patients with clinically stable coronary disease; experiment: LoDoCo Trial: colchicine 0.5 mg/day added to standard secondary prevention therapies
Procedure: To assess the therapeutic effects of an immediate release formulation in patients with cardiovascular disease, a prospective randomized observer blinded end-point trial was conducted to determine whether adding 0.5 mg/day of colchicine to standard secondary prevention therapies including aspirin and high dose statins reduces the risk of cardiovascular events in patients with objectively diagnosed and clinically stable coronary disease.
Eligible consenting patients with established coronary disease presenting for routine clinical review were randomized to receive colchicine 0.5 mg/day or no colchicine without any other change to their medical therapy. All outcomes were evaluated by an experienced adjudicator blinded to the treatment allocation.
It was planned to recruit a study population that would include 500 patients planned (532 patients randomized as 32 dropped out early), 250 randomized to the control group and 250 patients randomized to treatment who were tolerant of colchicine for at least 4 weeks after the date of their randomization. Patients were eligible for inclusion if they met each of the following criteria: 1) angiographically proven coronary disease; 2) aged 35 to 85 years; 3) clinically stable for at least 6 months, 4) no major competing co-morbidities or contra-indication to colchicine therapy, 5) considered to be compliant with therapy and attending routine cardiology follow up appointments, and 6) willing to be consented and randomized into the study. Patients with a history of bypass surgery were only eligible if they had undergone bypass surgery more than 10 years before, or had angiographic evidence of graft failure or had undergone stenting since their bypass surgery. All patients signed informed consent before randomization.
The randomization sequence was computer generated, kept concealed from the investigators at all times and was managed by a research assistant who had no involvement in the evaluation or management of study patients. […] Despite electing to use the lowest dose of colchicine available, it was anticipated that a number of patients would withdraw from therapy early after randomization due to gastrointestinal side effects. In order to ensure that the requisite number of patients in the treatment arm were actually tolerant of treatment, the protocol allowed for the research assistant to assign a newly recruited patient to treatment if a patient discontinued colchicine due to side effects in the first month. Patients who were intolerant to therapy remained in the study, and were followed in the usual manner and included in the primary intention to treat analysis.
The drug was dispensed by their usual chemist, and if requested, patients were reimbursed for the cost of these scripts. All other treatments were continued as usual.
Patient compliance with treatment and outcome data were collected at routine follow up visits and at the time of any unplanned hospital admission. An acute coronary syndrome (ACS) was defined as either (a) Acute Myocardial Infarction (AMI), as evidenced by acute ischemic chest pain associated with a rise in serum troponin above the upper limit of normal or (b) Unstable Angina (UA), as evidenced by a recent acceleration of the patient's angina unassociated with a rise in serum troponin but associated with angiographic evidence of a change in the patient's coronary anatomy. […] The ACS was characterized as being stent-related if there was evidence of significant in-stent stenosis or acute stent thrombosis. Out of Hospital Cardiac Arrest was defined as either a sudden death as evidenced on the patient's death certificate, or a non-fatal out of hospital cardiac arrest, defined as a recovery from sudden collapse associated with documented asystole, ventricular tachycardia or ventricular fibrillation.

[4] = No treatment (no antithrombotic drug), colchicine group 1
[5] = Treated with Aspirin + clopidogrel + warfarin, colchicine group 2
[6] = Treated with Aspirin + clopidogrel, colchicine group 33
[7] = Treated with Aspirin + warfarin, colchicine group 6
[8] = Treated with Aspirin alone, colchicine group 173
[9] = Treated with Clopidogrel alone or warfarin alone (no aspirin), colchicine group 28
[10] = Treated with Clopidogrel alone, colchicine group 12
[11] = Treated with Warfarin alone, colchicine group 16
[12] = Treated with a least one antiplatelet drug (at least aspirin, clopidogrel or combinations thereof), colchicine group 226
[13] = Treated with at least aspirin, colchicine group 214
[14] = Treated with at least one antithrombotic drugs (at least aspirin, clopidogrel or warfarin or combinations thereof), colchicine group 242
[15] = intention to treat, 282 patients

CC(=O)Oc1ccccc1C(=O)O [aspirin]
recurrence rate [1]: 32.3% | recurrence rate (actuarial rates) [2]: 50.6%

COc1cc2c(c(OC)c1OC)-c1ccc(OC)c(=O)cc1[C@@H](NC(C)=O)CC2 [colchicine, N[5,6,7,9-tetrahydro-1,2,3,10-tetratmethoxy 9-oxobenzo[a]heptalen-7-yl],(S)-acetamide]
recurrence rate [1]: 10.7% | recurrence rate (actuarial rates) [2]: 24.0% | early intolerance due to gastrointestinal side effects, incidence ([3]; 282 randomized to treatment): 11% | Primary Outcome, number of patients [3, 4]: 0 (0%) | Primary Outcome, percent [3, 4]: 0 (0%) | Primary Outcome, number of patients ([3]; Total*, colchicine group 243): 11 | Primary Outcome, percent ([3]; Total*, colchicine group 243): 4.5% | Primary Outcome, number of patients [3, 5]: 0 (0%) | Primary Outcome, percent [3, 5]: 0 (0%) | Primary Outcome, number of patients [3, 6]: 3 | Primary Outcome, percent [3, 6]: 9% | Primary Outcome, number of patients [3, 7]: 0 (0%) | Primary Outcome, percent [3, 7]: 0 (0%) | Primary Outcome, number of patients [3, 8]: 7 | Primary Outcome, percent [3, 8]: 4% | Primary Outcome, number of patients [3, 9]: 1 | Primary Outcome, percent [3, 9]: 3.45% | Primary Outcome, number of patients [3, 10]: 1 | Primary Outcome, percent [3, 10]: 8.3% | Primary Outcome, number of patients [3, 11]: 0 (0%) | Primary Outcome, percent [3, 11]: 0 (0%) | Primary Outcome, number of patients [3, 12]: 11 | Primary Outcome, percent [3, 12]: 4.9% | Primary Outcome, number of patients [3, 13]: 10 | Primary Outcome, percent [3, 13]: 4.67% | Primary Outcome, number of patients [3, 14]: 11 | Primary Outcome, percent [3, 14]: 4.5% | risk of a cardiovascular event, including an ACS, out of hospital cardiac arrest and non-cardio-embolic ischemic stroke ([3]; colchicine 0.5 mg/day added to standard therapy in patients with stable coronary disease): significantly reduces the risk | patients who died of non-cardiac causes ([3]; colchicine group): 4 patients | patients who died ([3]; colchicine group, study period): 4 patients | ACS unrelated to stent disease associated with UA, incidence [3, 15]: 1.8% | ACS unrelated to stent disease associated with an AMI, incidence [3, 15]: 1.4% | ACS unrelated to stent disease, incidence [3, 15]: 3.2% | ACS, incidence [3, 15]: 4.6% | primary outcome, incidence ([3]; intention to treat, 282 patients assigned to colchicine 0.5 mg/day, median follow up 36 months): 5.3% | primary outcome, hazard ratio ([3]; intention to treat, colchicine vs control group, 95% CI 0.18-0.59, p<0.001): 0.33 | ACS unrelated to stent disease associated with UA, patients ([3]; intention to treat, of 282): 5 | ACS unrelated to stent disease associated with an AMI, patients ([3]; intention to treat, of 282): 4 | ACS unrelated to stent disease, patients ([3]; intention to treat, of 282): 9 | patients presenting with an ACS ([3]; intention to treat, of 282): 13 | primary outcome (ACS, out of hospital cardiac arrest or non-cardio-embolic ischemic stroke), patients with event ([3]; intention to treat, of 282 patients assigned to colchicine 0.5 mg/day, median follow up 36 months): 15 patients | early intolerance due to gastrointestinal side effects, patients ([3]; of 282 randomized to treatment): 32 | events (primary outcome), hazard ratio ([3]; on-treatment vs control, 95% CI 0.15-0.56, p<0.001): 0.29 | events (primary outcome), incidence ([3]; on-treatment: compliant and tolerant to therapy beyond the first month, 243 patients): 4.5% | events (primary outcome), patients ([3]; on-treatment: compliant and tolerant to therapy beyond the first month, of 243): 11 | stent related ACS with evidence of acute stent thrombosis, patients ([3]; per group): 2 | stent related ACS with evidence of significant in-stent stenosis, patients ([3]; per group): 2 | number needed to treat ([3]; primary outcome, intention to treat): 11 | out of hospital cardiac arrest and non-cardio-embolic ischemic stroke ([3]; treatment group vs control, infrequent events): reduced | AMI unrelated to stent disease, hazard ratio ([3]; vs control, 95% CI 0.08-0.76, p=0.014): 0.25 | UA unrelated to stent disease, hazard ratio ([3]; vs control, 95% CI 0.10-0.75, p=0.011): 0.27 | ACS unrelated to stent disease, hazard ratio ([3]; vs control, 95% CI 0.12-0.55, p<0.001): 0.26 | ACS, hazard ratio ([3]; vs control, 95% CI 0.18-0.63, p<0.001): 0.33
